Test results published in patent US20230183640A1, “METABOLIC INHIBITORS WITH EFFICACY FOR INHIBITING SULFIDE PRODUCTION IN HARSH ENVIRONMENTS” (MC (US) 3 LLC, priority 2020, published 2023).

How the values were obtained:
Test in all cases: Log (Growth) efficacy in aerobic conditions, non-SRB bacteria
Type in all cases: cell-based
Escherichia coli 8739 = test system: Escherichia coli 8739
Procedure: (§1) 24-hour cultures were made of ATCC Escherichia coli 8739, Pseudomonas aeruginosa 15442, Enterobacter aerogenes 13048, and Klebsiella pneumoniae 13883. The cultures were prepared by taking a loop of a pure bacterial colony and inoculating 10 mL of TSB. These were grown for 24 hours at 30° C.
(§2) Following the 24-hour incubation, 600 microliters (μL) were taken from each culture and optical density (OD) was measured using a Thermofisher Spectronic 200 Spectrophotometer at 600 nm. Each culture was diluted to 0.05 OD600 in fresh Phosphate Buffered Saline (PBS). Using these cultures, two deep well plates were prepared. Edge wells were not used due to their inherent variability and evaporation of the media. Each of the components were added at their respective concentrations for a final volume of […] per well. In Table 8, the concentrations of the compound C1 used for the experiments are listed. Each experiment was done with at least three replicates for different treatments and non-treatment controls. Plates were then sealed with a titer-top and incubated in an incubator at 30° C.
(§3) Enumerations were done at each time point, which included 0 hour, 1 hour, 4 hours and 24 hours. Enumeration plates were made to determine the log growth in each dosed sample. For this process, enumeration plates were prepared by adding 180 μL fresh TSB. 20 μL was taken from each well of the challenge plates and transferred to the enumeration plates using a 20-200 μL multichannel pipette. Enumeration plates were mixed three times using the multichannel pipette and serial diluted down the plate tenfold (20 μL into 180 μL). This serial dilution process was repeated for all challenge plate rows giving a total of 6 enumeration plates. These enumeration plates were read after 24-hours and by counting the number of turbid wells in a row.

[1] = test system: Pseudomonas aeruginosa 15442
Procedure: as §1, §2, §3

[2] = test system: Enterobacter aerogenes 13048
Procedure: as §1, §2, §3

[3] = test system: Klebsiella pneumoniae 13883
Procedure: as §1, §2, §3

SMILES: O=C(CN1C(=O)c2cccc3cccc(c23)C1=O)NO [C1]
- Log (Growth) (Escherichia coli 8739; 0 hours, 6.25 PPM): 7.000
- Log (Growth) (Escherichia coli 8739; 0 hours, 12.5 PPM): 6.667
- Log (Growth) (Escherichia coli 8739; 0 hours, 25 PPM): 7.000
- Log (Growth) (Escherichia coli 8739; 0 hours, 50 PPM): 7.333
- Log (Growth) (Escherichia coli 8739; 0 hours, 100 PPM): 7.000
- Log (Growth) (Escherichia coli 8739; 0 hours, 200 PPM): 7.000
- Log (Growth) (Escherichia coli 8739; 1 hour, 6.25 PPM): 7.000
- Log (Growth) (Escherichia coli 8739; 1 hour, 12.5 PPM): 8.000
- Log (Growth) (Escherichia coli 8739; 1 hour, 25 PPM): 7.333
- Log (Growth) (Escherichia coli 8739; 1 hour, 50 PPM): 6.333
- Log (Growth) (Escherichia coli 8739; 1 hour, 100 PPM): 6.333
- Log (Growth) (Escherichia coli 8739; 1 hour, 200 PPM): 6.333
- Log (Growth) (Escherichia coli 8739; 4 hours, 6.25 PPM): 7.000
- Log (Growth) (Escherichia coli 8739; 4 hours, 12.5 PPM): 7.333
- Log (Growth) (Escherichia coli 8739; 4 hours, 25 PPM): 7.000
- Log (Growth) (Escherichia coli 8739; 4 hours, 50 PPM): 6.667
- Log (Growth) (Escherichia coli 8739; 4 hours, 100 PPM): 7.000
- Log (Growth) (Escherichia coli 8739; 4 hours, 200 PPM): 6.667
- Log (Growth) (Escherichia coli 8739; 24 hours, 6.25 PPM): 6.333
- Log (Growth) (Escherichia coli 8739; 24 hours, 12.5 PPM): 7.333
- Log (Growth) (Escherichia coli 8739; 24 hours, 25 PPM): 6.667
- Log (Growth) (Escherichia coli 8739; 24 hours, 50 PPM): 7.000
- Log (Growth) (Escherichia coli 8739; 24 hours, 100 PPM): 6.667
- Log (Growth) (Escherichia coli 8739; 24 hours, 200 PPM): 7.000
- Log (Growth) ([1]; 0 hours, 6.25 PPM): 7.333
- Log (Growth) ([1]; 0 hours, 12.5 PPM): 7.667
- Log (Growth) ([1]; 0 hours, 25 PPM): 7.333
- Log (Growth) ([1]; 0 hours, 50 PPM): 7.667
- Log (Growth) ([1]; 0 hours, 100 PPM): 8.000
- Log (Growth) ([1]; 0 hours, 200 PPM): 7.667
- Log (Growth) ([1]; 1 hour, 6.25 PPM): 7.000
- Log (Growth) ([1]; 1 hour, 12.5 PPM): 8.000
- Log (Growth) ([1]; 1 hour, 25 PPM): 7.667
- Log (Growth) ([1]; 1 hour, 50 PPM): 7.333
- Log (Growth) ([1]; 1 hour, 100 PPM): 8.000
- Log (Growth) ([1]; 1 hour, 200 PPM): 7.000
- Log (Growth) ([1]; 4 hours, 6.25 PPM): 7.000
- Log (Growth) ([1]; 4 hours, 12.5 PPM): 8.000
- Log (Growth) ([1]; 4 hours, 25 PPM): 7.000
- Log (Growth) ([1]; 4 hours, 50 PPM): 7.000
- Log (Growth) ([1]; 4 hours, 100 PPM): 7.667
- Log (Growth) ([1]; 4 hours, 200 PPM): 7.000
- Log (Growth) ([1]; 24 hours, 6.25 PPM): 7.333
- Log (Growth) ([1]; 24 hours, 12.5 PPM): 7.000
- Log (Growth) ([1]; 24 hours, 25 PPM): 7.333
- Log (Growth) ([1]; 24 hours, 50 PPM): 7.667
- Log (Growth) ([1]; 24 hours, 100 PPM): 8.000
- Log (Growth) ([1]; 24 hours, 200 PPM): 7.667
- Log (Growth) ([2]; 0 hours, 6.25 PPM): 7.667
- Log (Growth) ([2]; 0 hours, 12.5 PPM): 8.000
- Log (Growth) ([2]; 0 hours, 25 PPM): 7.333
- Log (Growth) ([2]; 0 hours, 50 PPM): 7.667
- Log (Growth) ([2]; 0 hours, 100 PPM): 7.000
- Log (Growth) ([2]; 0 hours, 200 PPM): 7.667
- Log (Growth) ([2]; 1 hour, 6.25 PPM): 7.667
- Log (Growth) ([2]; 1 hour, 12.5 PPM): 8.000
- Log (Growth) ([2]; 1 hour, 25 PPM): 7.333
- Log (Growth) ([2]; 1 hour, 50 PPM): 7.000
- Log (Growth) ([2]; 1 hour, 100 PPM): 7.333
- Log (Growth) ([2]; 1 hour, 200 PPM): 8.000
- Log (Growth) ([2]; 4 hours, 6.25 PPM): 7.667
- Log (Growth) ([2]; 4 hours, 12.5 PPM): 7.667
- Log (Growth) ([2]; 4 hours, 25 PPM): 7.667
- Log (Growth) ([2]; 4 hours, 50 PPM): 7.333
- Log (Growth) ([2]; 4 hours, 100 PPM): 8.000
- Log (Growth) ([2]; 4 hours, 200 PPM): 7.000
- Log (Growth) ([2]; 24 hours, 6.25 PPM): 6.667
- Log (Growth) ([2]; 24 hours, 12.5 PPM): 7.333
- Log (Growth) ([2]; 24 hours, 25 PPM): 7.000
- Log (Growth) ([2]; 24 hours, 50 PPM): 6.667
- Log (Growth) ([2]; 24 hours, 100 PPM): 7.000
- Log (Growth) ([2]; 24 hours, 200 PPM): 7.333
- Log (Growth) ([3]; 0 hours, 6.25 PPM): 7.667
- Log (Growth) ([3]; 0 hours, 12.5 PPM): 6.333
- Log (Growth) ([3]; 0 hours, 25 PPM): 6.667
- Log (Growth) ([3]; 0 hours, 50 PPM): 6.667
- Log (Growth) ([3]; 0 hours, 100 PPM): 6.667
- Log (Growth) ([3]; 0 hours, 200 PPM): 6.333
- Log (Growth) ([3]; 1 hour, 6.25 PPM): 6.333
- Log (Growth) ([3]; 1 hour, 12.5 PPM): 8.000
- Log (Growth) ([3]; 1 hour, 25 PPM): 6.333
- Log (Growth) ([3]; 1 hour, 50 PPM): 6.000
- Log (Growth) ([3]; 1 hour, 100 PPM): 7.333
- Log (Growth) ([3]; 1 hour, 200 PPM): 8.000
- Log (Growth) ([3]; 4 hours, 6.25 PPM): 7.667
- Log (Growth) ([3]; 4 hours, 12.5 PPM): 6.667
- Log (Growth) ([3]; 4 hours, 25 PPM): 6.667
- Log (Growth) ([3]; 4 hours, 50 PPM): 6.667
- Log (Growth) ([3]; 4 hours, 100 PPM): 7.000
- Log (Growth) ([3]; 4 hours, 200 PPM): 7.000
- Log (Growth) ([3]; 24 hours, 6.25 PPM): 7.333
- Log (Growth) ([3]; 24 hours, 12.5 PPM): 7.333
- Log (Growth) ([3]; 24 hours, 25 PPM): 6.000
- Log (Growth) ([3]; 24 hours, 50 PPM): 6.000
- Log (Growth) ([3]; 24 hours, 100 PPM): 7.000
- Log (Growth) ([3]; 24 hours, 200 PPM): 7.000
